Results taken from patent US20090176773A1, “Non-Peptidic Inhibitors of AKAP/PKA Interaction” (FORSCHUNGSVERBUND BERLIN E.V., priority 2005, published 2009).

Assays:
[1] = tested on: L-type Ca^2+ channel currents; experiment: Patch-clamp measurement of L-type Ca2+ channel currents in neonatal rat myocardial cells; assay type: cell-based; conditions: isoproterenol 1 μM stimulation, FIG. 24
Text: Another experiment is measurement of the Ca^2+ currents through L-type Ca^2+ channels in primarily cultured myocardial cells from neonatal rats using the patch clamp technique. To this effect, membrane sections of a single cell are fixed by a buffer-filled glass capillary, and a constant voltage is applied across the membrane. A current pulse can trigger a measurable increase of the Ca^2+ current through the voltage-dependent L-type Ca^2+ channels situated in the fixed membrane region.
After stimulating the cells with the non-specific β-adrenoreceptor agonist isoproterenol, an increase of the Ca^2+ channel current is to be expected because receptor activation triggers the AKAP18alpha-dependent signal cascade described in section 3.3. As a result, the L-type Ca^2+ channel is phosphorylated, thereby increasing its open probability. Such measurements can be performed in the presence or absence of the substances, so that the effect on the signaling pathway can be quantified indirectly via the currents being measured.
L-type Ca^2+ channel currents were measured in neonatal rat myocardial cells using the patch-clamp technique. The cells were held at −70 mV and repeatedly depolarized to a test potential of 0 mV (after an increase to −35 mV for 400 ms). […] Currents were measured 400 s after the whole cell configuration had established. […]

[2] = molecular target: T1, interaction of AKAP18delta with regulatory RIIalpha subunits of PKA in myocardial cells (Rattus norvegicus, UniProt P12368+Q6JP77); experiment: cAMP agarose precipitation, Western blot and RII overlay in neonatal myocardial cells; assay type: cell-based; conditions: 100 μM, 30 min, FIG. 23
T1 construct: endogenous in cells; host or cells: primary cultured neonatal (rat) myocardial cells
Method: In contrast, substance 990 has no influence on this interaction. The substances (see Tables A, B and D) were identified by screening a substance library comprising 20,064 compounds, using the ELISA-based test array illustrated in FIG. 17. Primarily cultured neonatal myocardial cells either remained untreated (control) or were incubated for 30 min with the substances 990, 18882 (100 μM each time) or with cAMP as negative control. Subsequently, the cells were lysed and subjected to cAMP agarose precipitation (Henn et al., JBC 279, 26654, 2004). A: AKAP18delta was detected in the lysates and in the cAMP agarose precipitates (cAMP agarose), using the AKAP18delta-specific antibody A18delta4 in a Western blot (Henn et al., JBC 279, 26654, 2004). cAMP was added to the batch as negative control. As a result, binding of regulatory subunits of PKA to the cAMP agarose was inhibited in a competitive fashion. For this reason, no AKAPs are precipitated and, as a consequence, AKAP18delta cannot be detected in this sample. AKAP18delta produced in a recombinant fashion was used as positive control. B: Using Western blotting, regulatory RIIbeta subunits of PKA were detected in the same samples as specified in A. As expected, no RIIbeta is detected in the sample containing cAMP (see A.). […] AKAP18delta produced in a recombinant fashion was detected as positive control.

[3] = tested on: vasopressin (AVP)-dependent redistribution of the aquaporin-2 (AQP2) water channel in renal principal cells (IMCD cells); experiment: AVP-induced redistribution of AQP2 in primarily cultured IMCD cells (immunofluorescence, laser scanning microscope); assay type: cell-based, rat; conditions: FIG. 18 and 21
Method: Initially, collecting duct cells from the inner medulla of rat kidneys (IMCD cells) can be stimulated with AVP in the presence or absence of the substances so as to stimulate AQP2 translocation. Thereafter, immunofluorescence staining can be performed, wherein the cells—following incubation—are fixed and made permeable. Using antibodies coupled to fluorescent dyes, the intracellular localization of AQP2 can subsequently be determined under a fluorescence microscope. In this way it is possible to investigate the influence of the substances on the presumably AKAP18delta-dependent translocation of AQP2.
Inhibition of the vasopressin (AVP)-dependent redistribution of the aquaporin-2 (AQP2) water channel in renal principal cells by the substances specified (see Table B; concentrations of inhibitors in μM). Primarily cultured principal cells from the inner medulla of rat kidneys (IMCD cells) represent a model for the AVP-induced translocation of AQP2. Said redistribution is the molecular basis of AVP-induced water reabsorption in the kidneys. AQP2 was detected by means of a specific antiserum and Cy3-labelled secondary antibodies in untreated cells (control) and in cells treated with AVP or substances, using a laser scanning microscope (Tamma et al., 2003; Henn et al., 2004).
Effect of the low-molecular weight substances 18882, 990 and 990 derivatives SM61 and SM65 on AVP-induced redistribution of AQP2 in IMCD cells (see FIG. 18). The structures and chemical properties of the substances are illustrated in Tables A, B and C (concentrations of inhibitors in μM). AQP2 was detected by means of a specific antiserum and Cy3-labelled secondary antibodies in untreated cells (control) and in cells treated with AVP or substances, using a laser scanning microscope (Tamma et al., 2003; Henn et al., 2004). […] In contrast, the substances 18882 and the 990 derivative SM65 have no influence on AVP-induced AQP2 redistribution at the concentrations used.

[4] = molecular target: T2, interaction of AKAP18delta with regulatory RIIalpha subunits of PKA in IMCD cells (Rattus norvegicus, UniProt P12368+Q6JP77); experiment: cAMP agarose precipitation, Western blot and RII overlay in IMCD cells; assay type: cell-based; conditions: 100 μM, 30 min, FIG. 22
T2 construct: endogenous in cells; host or cells: primary cultured rat IMCD cells
Method: The substance (see Tables A, B and D) was identified by screening a substance library comprising 20,064 compounds, using the ELISA-based test array illustrated in FIG. 17. Primarily cultured IMCD cells either remained untreated (control) or were incubated for 30 min with substance 990 (100 μM) or with cAMP as negative control. Subsequently, the cells were lysed and subjected to cAMP agarose precipitation (Henn et al., JBC 279, 26654, 2004).
A: AKAP18delta was detected in the lysates and in the cAMP agarose precipitates (cAMP agarose) using the AKAP18delta-specific antibody A18delta4 in a Western blot (Henn et al., 2004). cAMP was added to the batch as negative control. As a result, binding of regulatory subunits of PKA to the cAMP agarose was inhibited in a competitive fashion. For this reason, no AKAPs are precipitated and, as a consequence, AKAP18delta cannot be detected in this sample. AKAP18delta produced in a recombinant fashion was used as positive control.
B: To detect the AKAPs in the lysates and cAMP agarose precipitates, an RII overlay was carried out (Henn et al., JBC 279, 26654, 2004). AKAP18delta produced in a recombinant fashion was detected as positive control. AKAP18delta is indicated by arrows in A and B.

T1 sequence (P12368 2-401): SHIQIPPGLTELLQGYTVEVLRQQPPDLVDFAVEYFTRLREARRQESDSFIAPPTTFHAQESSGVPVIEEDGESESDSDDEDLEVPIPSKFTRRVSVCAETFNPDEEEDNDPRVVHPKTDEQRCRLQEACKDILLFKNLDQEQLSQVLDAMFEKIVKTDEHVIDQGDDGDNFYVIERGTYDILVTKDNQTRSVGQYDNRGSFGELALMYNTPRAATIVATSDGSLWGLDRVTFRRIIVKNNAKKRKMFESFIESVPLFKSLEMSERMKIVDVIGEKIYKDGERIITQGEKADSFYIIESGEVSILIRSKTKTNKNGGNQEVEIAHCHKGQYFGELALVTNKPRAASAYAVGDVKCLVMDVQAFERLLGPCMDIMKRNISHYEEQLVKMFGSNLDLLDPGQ
T1 sequence (Q6JP77 whole entry): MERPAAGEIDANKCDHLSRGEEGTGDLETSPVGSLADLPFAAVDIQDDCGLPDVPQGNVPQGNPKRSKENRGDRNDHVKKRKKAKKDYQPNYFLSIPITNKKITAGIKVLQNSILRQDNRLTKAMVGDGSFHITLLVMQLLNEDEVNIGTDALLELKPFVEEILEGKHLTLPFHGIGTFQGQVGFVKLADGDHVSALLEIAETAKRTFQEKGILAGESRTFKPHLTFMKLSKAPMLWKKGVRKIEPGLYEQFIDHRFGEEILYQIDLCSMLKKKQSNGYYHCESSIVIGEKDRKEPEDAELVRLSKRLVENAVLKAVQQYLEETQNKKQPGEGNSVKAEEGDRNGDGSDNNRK
T2 sequence (Q6JP77 whole entry): as above
T2 sequence (P12368 whole entry): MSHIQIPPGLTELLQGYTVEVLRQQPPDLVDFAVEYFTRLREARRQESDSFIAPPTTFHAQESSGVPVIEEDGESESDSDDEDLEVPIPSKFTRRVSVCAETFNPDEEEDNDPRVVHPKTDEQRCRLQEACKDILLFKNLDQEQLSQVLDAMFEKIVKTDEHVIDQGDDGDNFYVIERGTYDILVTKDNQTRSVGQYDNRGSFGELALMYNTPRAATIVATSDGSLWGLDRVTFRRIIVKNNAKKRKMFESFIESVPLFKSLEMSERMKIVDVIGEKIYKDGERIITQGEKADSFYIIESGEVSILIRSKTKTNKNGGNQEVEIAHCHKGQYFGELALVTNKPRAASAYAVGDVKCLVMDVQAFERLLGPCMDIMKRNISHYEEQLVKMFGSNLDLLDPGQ

Nc1cc(Cc2ccc(O)c(N)c2)ccc1O [Compound 18882]
Effect on L-type Ca2+ channel currents [1]: Inhibition of L-type Ca^2+ channel currents | Inhibition of AKAP18delta-RIIalpha interaction in myocardial cells [2]: inhibits the interaction | Effect on AVP-induced redistribution of AQP2 [3]: no influence

N=C(N)SCc1cccc2ccccc12 [Compound 990]
Inhibition of AKAP18delta-RIIalpha interaction in IMCD cells [4]: inhibits the interaction | Inhibition of AKAP18delta-RIIalpha interaction in myocardial cells [2]: no influence | Effect on AVP-induced redistribution of AQP2 [3]: prevents the AVP-induced redistribution of AQP2
